These results are taken from patent US9302998B2, “Aryl triazole compounds with antitumoural activity” (SIGMA-TAU RESEARCH SWITZERLAND S.A., priority 2010, dated 2016).

Molecules are shown by their SMILES.

Assay [1] relates to NCI-H460 non-small cell lung carcinoma. The experiment in a line: Cytotoxicity assay, sulphorodamine B test, NCI-H460. The note with it: Homo sapiens, NCI-H460; 72 h, sulphorodamine B. The format is cell-based. How it is done: (§1) The antiproliferative activity of novel Hsp90 inhibitors was also evaluated on various cancerous cell lines by means of the sulphorodamine B test (i.e., NCI-H460 non-small cell lung carcinoma, A431 epidermoid, A2780 ovarian, MDA-MB436 triple-negative breast, U87MG glioblastoma, A498 renal, HCT116 colon, MeWo melanoma, MiaPaCa2 pancreas, HeLa cervix uteri, NB4 promyelocytic leukemia). NCI-H460, A431, MDA-MB436, A2780, A498, HeLa, NB4 tumour cells were grown in RPMI 1640 containing 10% fetal bovine serum (i.e., FBS from GIBCO), L-glutamine, and 50 μg/ml gentamycin sulfate.
(§2) All cell lines were maintained in a 37° C. incubator with saturated humidity and an atmosphere containing 95% air and 5% CO2, and were sub-cultured every 2-3 days. Tumour cells were seeded in 96-well tissue culture plates at approximately 10% confluence and were allowed to attach and recover for 24 h.
(§3) Varying concentrations of the drugs were then added to each well to calculate their IC50 value (the concentration which inhibits the 50% of cell survival). The plates were incubated at 37° C. for 72 h. At the end of the treatment, the plates were washed by remotion of the supernatant and addition of PBS 3 times. 200 μl PBS and 50 μl of cold 80% trichloroacetic acid (TCA) were added. The plates were incubated on ice for at least 1 h. TCA was removed, the plates were washed 3 times by immersion in distilled-water and dried on paper and at 40° C. for […]. Then 200 μl of 0.4% sulphorodamine B in 1% acetic acid were added. The plates were incubated at room temperature for 30 min. Sulphorodamine B was removed, the plates were washed by immersion in 1% acetic acid for 3 times, then they were dried on paper and at 40° C. for 5 min. Then, 200 μl Tris 10 mM were added, the plates were kept under stirring for 20 min. The cell survival was determined as optical density by a Multiskan […] at 540 nm. The amount of cells killed was calculated as the percentage decrease in sulphorodamine B binding compared with control cultures.

The target of another assay is T1, Hsp90 (Homo sapiens, UniProt P07900).
T1 construct: purchased Stressgen SPP-776
Put plainly: Fluorescence Polarization (FP) binding, GM-BODIPY displacement from Hsp90. The conditions noted are these: GM-BODIPY tracer, 4° C. for 4 hours. As for the experimental part: GM-BODIPY (PerkinElmer, CUSN60342000MG) was previously dissolved in DMSO to obtain 10 mM stock solutions and kept at −20° C. until use.
Hsp90 (Stressgen, SPP-776), was previously dissolved in assay buffer (HFB) to form 2.2 μM stock solutions and kept at −80° C. until use.
The compounds were previously dissolved in DMSO to obtain stock solutions and kept at −20° C. The day of experiment, the compounds were prepared by serial dilutions in assay buffer (HFB) containing 20 mM HEPES (K) pH 7.3, 50 mM KCl, 5 mM MgCl2, 20 mM Na2MoO4 and 0.01% NP40. Before each use, 0.1 mg/ml Bovine Gamma globulin and 2 mM DTT were freshly added.
Fluorescence Polarization (FP) was performed in Opti-Plate™-96F well plates (Perkin Elmer, Zaventem, Belgium) using a plate reader (Wallac Envision 2101 multilabel reader, Perkin Elmer, Zaventem, Belgium). To evaluate the binding affinity of the molecules, 50 μl of the GM-BODIPY solution (100 nM) were added to 125 nM of Hsp90 in the presence of 5 μl of the test compounds at increasing concentrations. The plate was mixed on a shaker at 4° C. for 4 hours, and the FP values in mP (millipolarization units) were recorded. The IC50 values were calculated as the inhibitor concentration where 50% of the tracer is displaced; each data point is the result of the average of triplicate wells, and was determined from a plot using nonlinear least-squares analysis. Curve fitting was performed using
Prism GraphPad software program (GraphPad software, Inc., San Diego, Calif.).

Another assay concerns MiaPaCa2 pancreas. The experiment in a line: Sulphorodamine B test at single concentration, MiaPaCa2. The format is cell-based. The note with it: Homo sapiens, MIA PaCa-2; 500 nM, 72 h. How it is done:
as §1
MiaPaCa2 cells were cultured in DMEM medium containing 10% FBS, L-glutamine, and 50 μg/ml gentamycin sulfate.
as §2, §3
(§4) The other cell lines were screened against one single concentration of the various inhibitors (i.e., 500 nM), all experiments being made in octuplicate, following the protocol described at example 35. Since NB4 cell line was grown in suspension, a further step of centrifugation (i.e., 1600 g for 10 min) was added after the 72 hour incubation period.

The next assay deals with A498 renal. The experiment in a line: Sulphorodamine B test at single concentration, A498. It counts as cell-based. The note with it: Homo sapiens, 500 nM, 72 h. How it is done:
as §1, §2, §3, §4

The test system of assay [2] is MDA-MB436 triple-negative breast. Put plainly: Sulphorodamine B test at single concentration, MDA-MB436. It counts as cell-based. The conditions noted are these: Homo sapiens, MDA-MB-436; 500 nM, 72 h. How it is done: as §1, §2, §3, §4
For a further assay, the system named is MeWo melanoma. Put plainly: Sulphorodamine B test at single concentration, MeWo. The format is cell-based. The conditions noted are these: Homo sapiens, 500 nM, 72 h. As for the experimental part: as §1
(§5) MeWo and U87-MG cells were cultured in Eagle's Minimum Essential Medium (i.e., EMEM) containing 10% FBS, L-glutamine, 1 mM sodium pyruvate, 0.1 mM non-essential amino acids, 1.5 g/l sodium bicarbonate, and 50 μg/ml gentamycin sulphate.
as §2, §3, §4

In the next assay the test system is A431 epidermoid. Put plainly: Sulphorodamine B test at single concentration, A431. It counts as cell-based. The conditions noted are these: Homo sapiens, A-431; 500 nM, 72 h. As for the experimental part: as §1, §2, §3, §4
In the next assay the test system is A2780 ovarian. Put plainly: Sulphorodamine B test at single concentration, A2780. The format is cell-based. The note with it: Homo sapiens, 500 nM, 72 h. As for the experimental part:
as §1, §2, §3, §4

The test system of assay [3] is NB4 promyelocytic leukemia. The experiment in a line: Sulphorodamine B test at single concentration, NB4. It counts as cell-based. The conditions noted are these: 500 nM, 72 h, suspension cells. As for the experimental part: as §1, §2, §3, §4
The subject of a further assay is HCT116 colon. The experiment in a line: Sulphorodamine B test at single concentration, HCT116. The format is cell-based. The note with it: Homo sapiens, HCT-116; 500 nM, 72 h. How it is done:
as §1
HCT116 cells were cultured in McCoy's medium containing 10% FBS, L-glutamine, and 50 μg/ml gentamycin sulfate.
as §2, §3, §4

In a further assay the test system is HeLa cervix uteri. Put plainly: Sulphorodamine B test at single concentration, HeLa. The format is cell-based. The conditions noted are these: Homo sapiens, 500 nM, 72 h. As for the experimental part: as §1, §2, §3, §4
The test system of another assay is U87MG glioblastoma. The experiment in a line: Sulphorodamine B test at single concentration, U87MG. The format is cell-based. The note with it: Homo sapiens, U-87 MG; 500 nM, 72 h. As for the experimental part:
as §1, §5, §2, §3, §4

On to `CC(C)c1cc(-n2nncc2-c2ccc(CN3CCOCC3)cc2)c(O)cc1O` [Example 1], for which the IC50 is 100 to 500 nM in assay [1] and less than 50 nM on Hsp90.
Regarding `CC(C)c1cc(-n2nncc2-c2ccc(CN3CCN(Cc4ccccc4)CC3)cc2)c(O)cc1O` [Example 3, 4-{5-[4-(4-benzyl-piperazin-1-ylmethyl)-phenyl]-[1,2,3]triazol-1-yl}-6-isopropyl-benzene-1,3-diol], the inhibition at 0.5 µM in the assay with MiaPaCa2 pancreas is no less than 50%; in the assay on A498 renal it was 30 to 50%; in assay [2] it was no less than 50%; in the assay on MeWo melanoma it was no less than 50%; in the assay on A431 epidermoid it was no less than 50%; with A2780 ovarian, no less than 50%. Moreover, the inhibition at 0.5 µM (in [3]; in the assay on HCT116 colon; with HeLa cervix uteri) was no less than 50% in each case. Further, the figures for the concentration for half-maximal inhibition (IC50) (in [1]; on Hsp90) were 100 to 500 nM and less than 50 nM, respectively.
As for `CC(C)c1cc(-n2nncc2-c2ccc(CN3CCN(c4ccccc4)CC3)cc2)c(O)cc1O` [Example 4, 4-isopropyl-6-{5-[4-(4-phenyl-piperazin-1-ylmethyl)-phenyl]-[1,2,3]triazol-1-yl}-benzene-1,3-diol], the half-maximal inhibitory concentration (IC50) in [1] was 500 to 1000 nM; on Hsp90 it was less than 50 nM.
`CCNC(=O)c1nnn(-c2cc(C(C)C)c(O)cc2O)c1-c1ccc(CN(CC)CC)cc1` [Example 10, 5-(4-diethylaminomethyl-phenyl)-1-(2,4-dihydroxy-5-isopropyl-phenyl)-1H-[1,2,3]triazole-4-carboxylic acid ethylamide]: the half-inhibitory concentration (IC50) (in assay [1]; on Hsp90) was less than 50 nM in each case.
As for `CCNC(=O)c1nnn(-c2cc(C(C)C)c(O)cc2O)c1-c1ccc(CN2CCNCC2)cc1` [Example 12, 1-(2,4-dihydroxy-5-isopropyl-phenyl)-5-(4-piperazin-1-ylmethyl-phenyl)-1H-[1,2,3]triazole-4-carboxylic acid ethylamide], the inhibition at 0.5 µM was no less than 50% with MiaPaCa2 pancreas, 30 to 50% in the assay on A498 renal, no less than 50% in assay [2] and no less than 50% in the assay on A2780 ovarian. Moreover, the IC50 in assay [1] is 100 to 500 nM; at Hsp90, less than 50 nM.
In the case of `CCNC(=O)c1nnn(-c2cc(C(C)C)c(O)cc2O)c1-c1ccc(CNCCN2CCOCC2)cc1` [Example 14, 1-(2,4-dihydroxy-5-isopropyl-phenyl)-5-{4-[(2-morpholin-4-yl-ethylamino)-methyl]-phenyl}-1H-[1,2,3]triazole-4-carboxylic acid ethylamide], the inhibition at 0.5 µM with MiaPaCa2 pancreas is no less than 50%; in assay [2], no less than 50%; in the assay with MeWo melanoma, no less than 50%; in the assay on A431 epidermoid it was no less than 50%; in the assay on A2780 ovarian, no less than 50%; in the assay with HCT116 colon, 30 to 50%. Besides, the inhibition at 0.5 µM in the assay on U87MG glioblastoma was no less than 50%. Further, the IC50 is 100 to 500 nM in [1] and less than 50 nM on Hsp90.
Consider `CCNC(=O)c1nnn(-c2cc(C(C)C)c(O)cc2O)c1-c1ccc(CNC2CCCCC2)cc1` [Example 16, 5-(4-cyclohexylaminomethyl-phenyl)-1-(2,4-dihydroxy-5-isopropyl-phenyl)-1H-[1,2,3]triazole-4-carboxylic acid ethylamide], for which the IC50 (in [1]; on Hsp90) was less than 50 nM in each case.
Take `CCNC(=O)c1nnn(-c2cc(C(C)C)c(O)cc2O)c1-c1ccc(CNCCCN(CC)CC)cc1` [Example 18, 5-{4-[(3-diethylamino-propylamino)-methyl]-phenyl}-1-(2,4-dihydroxy-5-isopropyl-phenyl)-1H-[1,2,3]triazole-4-carboxylic acid ethylamide]: the concentration for half-maximal inhibition (IC50) in assay [1] is 500 to 1000 nM; on Hsp90 it was less than 50 nM.
At Hsp90, `CCNC(=O)c1nnn(-c2cc(C(C)C)c(O)cc2O)c1-c1ccc(CNC2CCN(C)CC2)cc1` [Example 19, 1-(2,4-dihydroxy-5-isopropyl-phenyl)-5-{4-[(1-methyl-piperidin-4-ylamino)-methyl]-phenyl}-1H-[1,2,3]triazole-4-carboxylic acid ethylamide] came in with an IC50 of less than 50 nM.
In the case of `CC(C)c1cc(-n2nncc2Nc2ccc(N3CCOCC3)cc2)c(O)cc1O` [Example 23, 4-isopropyl-6-[5-(4-morpholin-4-yl-phenylamino)-[1,2,3]triazol-1-yl]-benzene-1,3-diol], at Hsp90, the half-inhibitory concentration (IC50) was in the range of 50 to 100 nM.
For `CC(C)c1cc(-n2nncc2NCc2ccc(N3CCOCC3)cc2)c(O)cc1O` [Example 24, 4-isopropyl-6-[5-(4-morpholin-4-yl-benzylamino)-[1,2,3]triazol-1-yl]-benzene-1,3-diol], on Hsp90, the concentration for half-maximal inhibition (IC50) lay in the range of 100 to 500 nM.
Consider `CCNC(=O)c1nnn(-c2cc(C(C)C)c(O)cc2O)c1Nc1ccc(N2CCOCC2)cc1` [Example 25, 1-(2,4-dihydroxy-5-isopropyl-phenyl)-5-(4-morpholin-4-yl-phenylamino)-1H-[1,2,3]triazole-4-carboxylic acid ethylamide], for which the IC50 lay within 500 to 1000 nM in assay [1] and 50 to 100 nM on Hsp90.
Take `CCNC(=O)c1nnn(-c2cc(C(C)C)c(O)cc2O)c1NCc1ccc(N2CCOCC2)cc1` [Example 26, 1-(2,4-dihydroxy-5-isopropyl-phenyl)-5-(4-morpholin-4-yl-benzylamino)-1H-[1,2,3]triazole-4-carboxylic acid ethylamide]: the inhibition at 0.5 µM with MiaPaCa2 pancreas was no less than 50%; in the assay on A498 renal, no less than 50%; in the assay on MeWo melanoma it was 30 to 50%; in the assay with A2780 ovarian it was no less than 50%; in [3], 30 to 50%; in the assay with HCT116 colon it was no less than 50%. The half-maximal inhibitory concentration (IC50) in assay [1] was 100 to 500 nM; on Hsp90 it was less than 50 nM.
Turning to `CC(C)c1cc(-n2nnc(C(=O)N3CCOCC3)c2-c2ccc(CN3CCOCC3)cc2)c(O)cc1O` [Example 30, [1-(2,4-dihydroxy-5-isopropyl-phenyl)-5-(4-morpholin-4-ylmethyl-phenyl)-1H-[1,2,3]triazol-4-yl]-morpholin-4-yl-methanone], the half-inhibitory concentration (IC50) on Hsp90 lay in the range of 100 to 500 nM.
For `CC(C)c1cc(-n2nnc(C(=O)N[C@H](C(=O)O)C(C)C)c2-c2ccc(CN3CCOCC3)cc2)c(O)cc1O` [Example 31, (S)-2-{[1-(2,4-dihydroxy-5-isopropyl-phenyl)-5-(4-morpholin-4-ylmethyl-phenyl)-1H-[1,2,3]triazole-4-carbonyl]-amino}-3-methyl-butyric acid], the IC50 at Hsp90 lay in the range of 100 to 500 nM.

One may read the IC50 as the concentration at which inhibition is half-maximal. The inhibition is the relative decrease from the control value, in per cent. A low value points to a weak effect.
